Data reported in patent US9364479B2, “Use of a receptor-type kinase modulator for treating polycystic kidney disease” (SYMPHONY EVOLUTION, INC., priority 2010, dated 2016).
Marks after values point to notes of the source that are not given here.

Key:
[1] = tested on: Adrenergic, Beta, Non-selective; assay: NovaScreen assay; type: binding
Dopamine Transporter = molecular target: T1, Dopamine Transporter (Homo sapiens, UniProt Q01959); assay: NovaScreen assay; type: binding
T1 construct: NovaScreen
T1 sequence (Q01959 whole entry): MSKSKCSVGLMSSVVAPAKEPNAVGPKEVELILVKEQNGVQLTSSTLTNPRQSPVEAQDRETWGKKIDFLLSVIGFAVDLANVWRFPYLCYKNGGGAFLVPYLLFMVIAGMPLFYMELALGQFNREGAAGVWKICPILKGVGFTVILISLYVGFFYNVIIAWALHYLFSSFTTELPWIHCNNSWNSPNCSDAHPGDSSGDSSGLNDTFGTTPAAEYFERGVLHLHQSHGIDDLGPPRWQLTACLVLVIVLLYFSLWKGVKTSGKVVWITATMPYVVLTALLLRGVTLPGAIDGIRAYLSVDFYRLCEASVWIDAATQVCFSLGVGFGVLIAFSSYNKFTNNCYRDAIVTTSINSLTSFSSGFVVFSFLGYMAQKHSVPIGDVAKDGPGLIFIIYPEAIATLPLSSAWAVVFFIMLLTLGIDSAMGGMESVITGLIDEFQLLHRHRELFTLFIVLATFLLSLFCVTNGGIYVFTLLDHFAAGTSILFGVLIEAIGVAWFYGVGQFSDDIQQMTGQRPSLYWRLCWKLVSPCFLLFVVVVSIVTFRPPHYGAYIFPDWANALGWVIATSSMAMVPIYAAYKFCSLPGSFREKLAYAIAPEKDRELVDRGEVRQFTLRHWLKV

Dopamine, Non-selective = assay: NovaScreen assay; type: binding
GABA A, Agonist Site = assay: NovaScreen assay; type: binding
[2] = tested on: Glycine, Strychnine-sensitive; assay: NovaScreen assay; type: binding
Histamine, H1 = molecular target: T2, Histamine, H1 (Homo sapiens, UniProt P35367); assay: NovaScreen assay; type: binding; conditions: read-out: Inhibition, 10 μM XL-647
T2 construct: NovaScreen
T2 sequence (P35367 whole entry): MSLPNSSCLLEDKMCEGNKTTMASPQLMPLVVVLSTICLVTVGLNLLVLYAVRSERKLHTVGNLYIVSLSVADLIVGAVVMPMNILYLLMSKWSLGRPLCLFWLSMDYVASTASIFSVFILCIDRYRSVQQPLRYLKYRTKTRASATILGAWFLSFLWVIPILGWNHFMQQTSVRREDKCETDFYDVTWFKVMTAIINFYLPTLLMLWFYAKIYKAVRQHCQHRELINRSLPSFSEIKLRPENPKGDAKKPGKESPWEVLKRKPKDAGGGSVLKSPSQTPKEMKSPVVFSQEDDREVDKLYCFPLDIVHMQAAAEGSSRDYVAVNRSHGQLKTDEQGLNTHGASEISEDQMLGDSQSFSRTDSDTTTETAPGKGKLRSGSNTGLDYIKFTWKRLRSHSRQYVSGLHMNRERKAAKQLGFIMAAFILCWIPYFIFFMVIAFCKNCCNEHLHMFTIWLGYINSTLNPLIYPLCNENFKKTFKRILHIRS

[3] = tested on: Muscarinic, Non-selective, Peripheral; assay: NovaScreen assay; type: binding
Sodium, Site 2 = assay: NovaScreen assay; type: binding
[4] = tested on: Vasoactive Intestinal Peptide, Non-selective; assay: NovaScreen assay; type: binding
[5] = molecular target: T3, Monoamine Oxidase A, Peripheral (Rattus norvegicus, UniProt P21396); assay: NovaScreen assay; type: biochemical; conditions: read-out: Inhibition, 10 μM XL-647
T3 construct: NovaScreen
T3 sequence (P21396 whole entry): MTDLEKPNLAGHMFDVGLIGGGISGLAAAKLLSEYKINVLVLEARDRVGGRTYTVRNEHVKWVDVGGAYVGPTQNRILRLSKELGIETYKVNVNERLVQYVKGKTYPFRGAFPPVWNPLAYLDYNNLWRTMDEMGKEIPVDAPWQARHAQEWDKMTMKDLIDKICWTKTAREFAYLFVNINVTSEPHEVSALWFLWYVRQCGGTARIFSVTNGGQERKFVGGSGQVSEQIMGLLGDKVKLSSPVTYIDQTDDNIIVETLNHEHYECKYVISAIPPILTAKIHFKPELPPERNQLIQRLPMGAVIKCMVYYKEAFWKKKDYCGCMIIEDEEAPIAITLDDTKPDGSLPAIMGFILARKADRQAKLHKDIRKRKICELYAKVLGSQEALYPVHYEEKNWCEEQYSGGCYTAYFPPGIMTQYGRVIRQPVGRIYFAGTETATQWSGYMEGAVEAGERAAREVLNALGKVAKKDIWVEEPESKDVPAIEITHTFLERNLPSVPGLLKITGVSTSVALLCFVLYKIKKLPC

[6] = tested on: AKT phosphorylation (H1975 cells); assay: Immunoblot analysis of H1975 cell lysates; type: cell-based, human
Description: (§1) For the H1975 immunoblot studies, 3×10^5 cells were plated in each well (12-well plate) and incubated for 16 h in complete RPMI 1640, rinsed with fetal bovine serum-free RPMI 1640, and incubated with serial dilutions of test compounds in fetal bovine serum-free medium for 2 h followed by stimulation with 100 ng/mL human recombinant EGF for 10 min. Whole-cell protein lysates were prepared as described above and centrifuged for 10 min at 13,000×g at 4° C. to remove any insoluble material. Total protein was determined using bicinchoninic acid reagent and an equal amount of protein was combined with LDS loading buffer (Invitrogen) according to the manufacturer's instructions. Proteins were separated by gel electrophoresis on 4% to 15% polyacrylamide gels, transferred to nitrocellulose membranes, and detected by immunoblotting. Antibody:antigen complexes were detected using chemiluminescence. The following antibodies from Cell Signaling Technology were used at a 1:1,000 dilution: anti-EGFR, anti-pEGFR^Tyr1068, anti-AKT, anti-pAKT^Ser473, anti-ERK, and anti-pERK^Thr202/Tyr204. The anti-β-actin primary antibody (Accurate Chemical and Scientific) was used at 1:10,000 and the horseradish peroxidase-coupled secondary antibodies were purchased from Jackson ImmunoResearch and used at 1:5,000.

[7] = tested on: ERK phosphorylation (H1975 cells); assay: Immunoblot analysis of H1975 cell lysates; type: cell-based, human
Description: as §1

A431 tumors = assay: Immunohistochemical analysis of A431 tumors; type: in vivo, mouse; conditions: 14-day dosing
Description: (§2) For immunohistochemical analysis of H1975, MDA-MB-231 and other xenografts, tumors were excised after euthanasia and fixed in zinc fixative (BD Biosciences) for 48 h before being processed into paraffin blocks. Serial sections at 5 μm were obtained from the area of largest possible surface for each tumor and stained using standard methods. The following antibodies were used: Ki67 (SP6; Labvision), CD31 (MECA.32; BD Biosciences), pERK^Thr202/Tyr204 (phospho-p44/42 mitogen-activated protein kinase; Cell Signaling Technology), pAKT^Ser473 (Cell Signaling Technology), and pEGFR^Tyr1068 (Cell Signaling Technology). For immunofluorescent staining, sections were then incubated with Alexa 594-conjugated goat anti-rabbit secondary antibody (Invitrogen) and mounted in Fluorescent Mounting Medium (DAKO) containing 4′,6-diamidino-2-phenylindole (Molecular Probes) as a nuclear counterstain. Fluorescent staining was visualized using a Zeiss Axiolmager and digitally captured using a Zeiss high-resolution camera coupled to AxioVision image analysis software. Two to three nonoverlapping representative fields were captured at ×200 or ×400 magnification depending on histologic readout and quantified using the integrated morphometric analysis functions in Metamorph software (Universal Imaging Corp.). Apoptotic cells were detected using terminal deoxynucleotidyl transferase-mediated dUTP nick end labeling in situ cell death detection kit according to the manufacturer's instructions (Roche Diagnostics GmbH).
(§3) CD31-positive tumor vessels, Ki67-positive proliferating cells, and pERK staining in each tumor section were identified and quantified using the integrated morphometric analysis functions in the ACIS automatic cellular imaging system (Clarient, Inc.) and reviewed by a blinded observer. Number of CD31-positive vessels were identified across 5 to 10 randomly chosen fields of equal size at ×100 magnification in viable tumor tissue and calculated as number of vessels per square millimeter for each tumor, averaged for each treatment group, and compared with vehicle-treated controls. Percentage Ki67-positive cells were calculated as the ratio between Ki67-positive cells divided by the total number of cells identified across 5 to 10 randomly chosen fields of equal size in viable tumor tissue. The results for each tumor and treatment group were averaged and compared with vehicle-treated controls. The level of pERK staining was determined as described above and calculated as the ratio of antibody staining divided by the total number of cells identified, averaged for each treatment group, and compared with vehicle-treated controls.

[8] = tested on: Phospho ERK Thr203/Tyr204; assay: Immunohistochemical analysis of phosphorylation in H1975 xenografts; type: in vivo, mouse; conditions: 14-day dosing
Description: as §2, §3
Results are presented as mean±SD or SE as indicated for each graph or table. For IC50 comparison in the A431 cell viability experiment, two sample Student's t tests were applied to determine P values for each IC50 pair assuming that the random fluctuations of replicates around the dose-response curve are distributed [log]normally with the individual replicates used as the ‘sample size’ for the t test (nine point dose response done in triplicate). For statistical analysis of immunohistochemical results from in vivo studies, two-tailed Student's t test analysis and Bonferroni correction were done to identify significant differences compared with vehicle control group (multiple use of a single vehicle control group) with a cumulative minimal requirement of P<0.05.

COc1cc2c(Nc3ccc(Cl)c(Cl)c3F)ncnc2cc1OC[C@@H]1C[C@@H]2CN(C)C[C@@H]2C1 [XL-647, N-(3,4-dichloro-2-fluorophenyl)-7-({[(3aR,5r,6aS)-2-methyloctahydrocyclopenta[c]pyrrol-5-yl]methyl}oxy)-6-(methyloxy)quinazolin-4-amine]
Inhibition, 10 μM XL-647 [1]: 18.01% | IC50 (Dopamine Transporter): 2480 nM | inhibition at 10 µM (Dopamine Transporter; read-out: Inhibition, 10 μM XL-647): 87.1% | Inhibition, 10 μM XL-647 (Dopamine, Non-selective): 34.88% | Inhibition, 10 μM XL-647 (GABA A, Agonist Site): 1.07% | Inhibition, 10 μM XL-647 [2]: 12.95% | inhibition at 10 µM (Histamine, H1): 59.8% | IC50 [3]: 2650 nM | Inhibition, 10 μM XL-647 ([3]; 10 μM): 87.74% | Inhibition, 10 μM XL-647 (Sodium, Site 2): 88.06% | Inhibition, 10 μM XL-647 [4]: 17.02% | inhibition at 10 µM [5]: 1.66% | phosphorylation of AKT, immunoblot [6]: inhibits the phosphorylation of AKT and ERK | phosphorylation of ERK, immunoblot [7]: inhibits the phosphorylation of AKT and ERK | CD31 Analysis % Reduction (A431 tumors; 10 mg/kg): 33.5% | CD31 Analysis MVC (A431 tumors; 10 mg/kg): 18.6 | Ki67 Expression % Reduction (A431 tumors; 10 mg/kg): 53.3% | Ki67 Expression % of Cells (A431 tumors; 10 mg/kg): 17.6% | Necrosis % Increase (A431 tumors; 10 mg/kg): 20.7% | CD31 Analysis % Reduction (A431 tumors; 30 mg/kg): 43.2% | CD31 Analysis MVC (A431 tumors; 30 mg/kg): 15.9 | Ki67 Expression % Reduction (A431 tumors; 30 mg/kg): 67.2% | Ki67 Expression % of Cells (A431 tumors; 30 mg/kg): 12.3% | Necrosis % Increase (A431 tumors; 30 mg/kg): 26.5% | CD31 Analysis % Reduction (A431 tumors; 100 mg/kg): 87.3% | CD31 Analysis MVC (A431 tumors; 100 mg/kg): 3.6 | Ki67 Expression % Reduction (A431 tumors; 100 mg/kg): 82.6% | Ki67 Expression % of Cells (A431 tumors; 100 mg/kg): 6.5% | Necrosis % Increase (A431 tumors; 100 mg/kg): 61.7% | Phospho ERK Thr203/Tyr204 % Cells ([8]; 10 mg/kg): 20 ± 4.3% | Phospho ERK Thr203/Tyr204 % Reduction ([8]; 10 mg/kg): 11.8% | Phospho ERK Thr203/Tyr204 % Cells ([8]; 30 mg/kg): 13 ± 4.9% | Phospho ERK Thr203/Tyr204 % Reduction ([8]; 30 mg/kg): 41.8^a % | Phospho ERK Thr203/Tyr204 % Cells ([8]; 100 mg/kg): 10 ± 3.7% | Phospho ERK Thr203/Tyr204 % Reduction ([8]; 100 mg/kg): 57.1^a %
